The results in this text go back to PubChem BioAssay (NCI).

Among the test systems are RPMI-8226 leukemia; NCI-H522 lung; HT29 colon; M14 melanoma; RXF 393 renal; EKVX NSCLC; CAKI-1 renal; HCT-116 colon; NCI-H23 lung; UO-31 renal; T-47D breast; SNB-19 CNS; A549 NSCLC; LOX IMVI melanoma; BT-549 breast; HOP-92 NSCLC.
Experiment in all cases: NCI tumour cell line growth inhibition, 48 h

The structures appear in SMILES notation.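 Briefly, cells in 96-well plates were exposed to five compound concentrations for 48 h, and endpoints were estimated by linear interpolation. Definition used: TGI = concentration required for complete inhibition of growth.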 Where only a bound is given, the exact number is not on record here.

As for `CC1(Cc2cc3c(cc2C2(c4ccc([N+](=O)[O-])cc4)OCCO2)OCO3)OCCO1`, the TGI was 78.4 µM in the test on RPMI-8226 leukemia; 82.3 µM in the test with NCI-H522 lung; > 100 µM in the test with HT29 colon; > 100 µM in the test on M14 melanoma; > 100 µM in the test on RXF 393 renal; > 100 µM in the test with EKVX NSCLC. The TGI in the test on CAKI-1 renal, with HCT-116 colon, in the test on NCI-H23 lung, in the test on UO-31 renal, in the test with T-47D breast and in the test with SNB-19 CNS was > 100 µM each time. Also, the figures for the TGI in the test with A549 NSCLC, in the test with LOX IMVI melanoma and in the test on BT-549 breast were > 100 µM, > 100 µM and 98.9 µM, respectively.
With `Cc1ncc([N+](=O)[O-])n1CCNC(=O)Cn1ccnc1[N+](=O)[O-]`, the TGI in the test on NCI-H522 lung, with HT29 colon, in the test on M14 melanoma, in the test with CAKI-1 renal, in the test on HCT-116 colon and in the test on NCI-H23 lung was > 100 µM throughout. For the same molecule, the TGI in the test on UO-31 renal, in the test with T-47D breast, in the test with SNB-19 CNS, in the test on A549 NSCLC and with BT-549 breast was > 100 µM each time.
As to `CCN(CC)c1ccc2cc(-c3csc(C)n3)c(=O)oc2c1`, the TGI in the test with RPMI-8226 leukemia, in the test with HT29 colon, in the test on M14 melanoma, in the test with RXF 393 renal, in the test on EKVX NSCLC and with CAKI-1 renal was > 100 µM throughout. The TGI in the test with HCT-116 colon was > 100 µM; in the test with UO-31 renal, > 100 µM; in the test on T-47D breast, > 100 µM; in the test with SNB-19 CNS it was > 100 µM; in the test with HOP-92 NSCLC, 92.7 µM; with A549 NSCLC it was > 100 µM. The TGI with LOX IMVI melanoma and with BT-549 breast was > 100 µM in each case.
Regarding `CC[C@H]1C=CCC[C@@]2(C[C@@H]3CC[C@H]4[C@@H](C(=O)OCCCCCCCCCCCCCCCC(=O)N(CCCNC(C)=O)C[C@H](CCNC(C)=O)OC(C)=O)[C@@]5(CCC[C@@H](C)O5)NC(=[N+]34)N2)O1`, the TGI in the test with RPMI-8226 leukemia is 0.554 µM; in the test on NCI-H522 lung, 2.63 µM; with HT29 colon, 2.7 µM; in the test with M14 melanoma it was 3.24 µM; in the test on RXF 393 renal, 3.44 µM; in the test on EKVX NSCLC it was 2.09 µM. Moreover, the TGI was determined as 5.08 µM in the test on CAKI-1 renal; 2.92 µM in the test on HCT-116 colon; 3.19 µM with NCI-H23 lung; 3.16 µM in the test on UO-31 renal; 3.07 µM in the test with SNB-19 CNS; 2.43 µM in the test with HOP-92 NSCLC. Also, the TGI in the test with A549 NSCLC worked out at 3.42 µM; in the test with LOX IMVI melanoma it was 3.16 µM; with BT-549 breast it was 3.5 µM.
`CCOC(=O)C(C)c1nc2cc(C(F)(F)F)ccc2[nH]c1=O` (stereo not drawn): the TGI with RPMI-8226 leukemia, in the test on HT29 colon, in the test on M14 melanoma, in the test with RXF 393 renal, in the test with EKVX NSCLC and with CAKI-1 renal was > 100 µM throughout. The TGI was > 100 µM with HCT-116 colon; > 100 µM in the test with NCI-H23 lung; > 100 µM in the test with UO-31 renal; 67.7 µM in the test on T-47D breast; > 100 µM in the test with SNB-19 CNS; > 100 µM in the test on HOP-92 NSCLC. Also, the TGI in the test with A549 NSCLC, with LOX IMVI melanoma and with BT-549 breast was > 100 µM each time.
Turning to `O=C1/C(=C/c2ccc(OC(=O)c3ccc(Cl)cc3)cc2)CCC/C1=C\c1ccc(OC(=O)c2ccc(Cl)cc2)cc1`, the TGI in the test on RPMI-8226 leukemia, in the test with NCI-H522 lung, in the test on HT29 colon, with M14 melanoma, with EKVX NSCLC and in the test with CAKI-1 renal was > 100 µM each time. The TGI with HCT-116 colon, with NCI-H23 lung, in the test on UO-31 renal, in the test with T-47D breast, in the test with SNB-19 CNS and in the test with HOP-92 NSCLC was > 100 µM throughout. The TGI in the test with A549 NSCLC, with LOX IMVI melanoma and with BT-549 breast was > 100 µM in each case.
In the case of `CN(C)CCN=C1Nc2ccccc2C(=O)N2CSCC12` (stereo not drawn), the TGI in the test with RPMI-8226 leukemia, with NCI-H522 lung, in the test with HT29 colon, in the test with M14 melanoma, in the test on RXF 393 renal and in the test on EKVX NSCLC was > 100 µM throughout. The TGI in the test on CAKI-1 renal, in the test on HCT-116 colon, in the test with UO-31 renal, in the test with T-47D breast, with SNB-19 CNS and with A549 NSCLC was > 100 µM throughout. Besides, the TGI in the test with LOX IMVI melanoma and with BT-549 breast was > 100 µM in each case.
For `CCOC(=O)CNC(=O)CNC(=O)CNC(=O)CNNc1c(OCc2ccccc2)c(=O)c1=O`, the TGI in the test on RPMI-8226 leukemia, in the test on NCI-H522 lung, in the test with HT29 colon, in the test on M14 melanoma, with RXF 393 renal and in the test with EKVX NSCLC was > 100 µM each time. In addition, the TGI in the test on CAKI-1 renal, with HCT-116 colon, with NCI-H23 lung, with UO-31 renal, in the test on T-47D breast and in the test with SNB-19 CNS was > 100 µM each time. For the same molecule, the TGI in the test on A549 NSCLC and in the test with BT-549 breast was > 100 µM in each case.
`COCCNC1CCC(=O)c2[nH]c3ccccc3c21` (stereo not drawn): the TGI in the test with RPMI-8226 leukemia, with NCI-H522 lung, in the test with HT29 colon, in the test with M14 melanoma, with RXF 393 renal and with EKVX NSCLC was > 100 µM throughout. The TGI in the test with CAKI-1 renal, with HCT-116 colon, in the test with NCI-H23 lung, with UO-31 renal, in the test on SNB-19 CNS and with HOP-92 NSCLC was > 100 µM in each case. For the same molecule, the TGI in the test with A549 NSCLC, in the test with LOX IMVI melanoma and with BT-549 breast was > 100 µM each time.
As for `CCOC(=O)CON=c1c2ccccc2ccc2ccccc12`, the TGI with RPMI-8226 leukemia, with HT29 colon, in the test with M14 melanoma, in the test with RXF 393 renal, with EKVX NSCLC and in the test with CAKI-1 renal was > 100 µM throughout. Moreover, the TGI in the test with HCT-116 colon, with NCI-H23 lung, in the test with UO-31 renal, in the test on T-47D breast, in the test with SNB-19 CNS and in the test on HOP-92 NSCLC was > 100 µM throughout. Moreover, the TGI in the test with A549 NSCLC, in the test with LOX IMVI melanoma and with BT-549 breast was > 100 µM in each case.
